Test results from ChEMBL document CHEMBL1201862, “PubChem BioAssay data set” (2004).
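Five concentrations, 48 hours, 96-well plates. The concentration for 50% growth inhibition is given as GI50.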 Activity calls are given as the source filed them. No stated cut-off is given here; in the data, active = GI50 up to about 1.1 µM and inactive = higher.

Columns and labels:
Assay in all cases: NCI anticancer screen, dose series, 48 h
[1] = system: BT-549
[2] = system: DU-145
[3] = system: HCT-116
[4] = system: HOP-62
[5] = system: LOX IMVI
[6] = system: M14
[7] = system: Malme-3M
[8] = system: NCI-H226
[9] = system: NCI-H23
[10] = system: RPMI-8226
[11] = system: RXF 393
[12] = system: SK-MEL-2
[13] = system: SNB-75
[14] = system: UACC-62
[15] = system: Hs-578T
[16] = system: T47D

SMILES | GI50 [1] | GI50 [2] | GI50 [3] | GI50 [4] | GI50 [5] | GI50 [6] | GI50 [7] | GI50 [8] | GI50 [9] | GI50 [10] | GI50 [11] | GI50 [12] | GI50 [13] | GI50 [14] | GI50 [15] | GI50 [16]
NCC1CCCCC1.O=C(O)NCC1CCCCC1 | 26.5 µM (inactive) | 21.1 µM (inactive) | 27.6 µM (inactive) | 17.5 µM (inactive) | 15.3 µM (inactive) | 36.6 µM (inactive) | 2.29 µM (inactive) | 17.9 µM (inactive) | 23.3 µM (inactive) | 1.36 µM (inactive) | 19.1 µM (inactive) | 14.1 µM (inactive) | 13.7 µM (inactive) | 18.7 µM (inactive) | – | –
Cc1nc(N)nc(S)c1CCC(=O)O | > 100 µM (inactive) | > 100 µM (inactive) | > 100 µM (inactive) | > 100 µM (inactive) | > 100 µM (inactive) | > 100 µM (inactive) | > 100 µM (inactive) | > 100 µM (inactive) | > 100 µM (inactive) | > 100 µM (inactive) | > 100 µM (inactive) | > 100 µM (inactive) | – | > 100 µM (inactive) | > 100 µM (inactive) | –
Cc1cc2cc3ccccc3cc2c(=O)[nH]1 | > 10 µM (inactive) | > 10 µM (inactive) | > 10 µM (inactive) | – | > 10 µM (inactive) | > 10 µM (inactive) | – | > 10 µM (inactive) | > 10 µM (inactive) | – | > 10 µM (inactive) | – | > 10 µM (inactive) | > 10 µM (inactive) | > 10 µM (inactive) | –
COc1cc(C2SCC(=O)N2c2ccc(-n3c(-c4ccccc4)nc4ccccc4c3=O)cc2)ccc1O (centres undefined) | > 100 µM (inactive) | > 100 µM (inactive) | 50.1 µM (inactive) | > 100 µM (inactive) | 54.6 µM (inactive) | > 100 µM (inactive) | 54.7 µM (inactive) | 5.01 µM (inactive) | > 100 µM (inactive) | 76.4 µM (inactive) | – | > 100 µM (inactive) | – | 26.1 µM (inactive) | 22.3 µM (inactive) | 30 µM (inactive)
Nc1nc(N)c2c(-c3ccccc3)ccnc2n1 | > 100 µM (inactive) | > 100 µM (inactive) | > 100 µM (inactive) | > 100 µM (inactive) | > 100 µM (inactive) | – | > 100 µM (inactive) | 40.4 µM (inactive) | > 100 µM (inactive) | > 100 µM (inactive) | > 100 µM (inactive) | > 100 µM (inactive) | – | > 100 µM (inactive) | – | –
CC(C)NC(=O)OCc1c(COC(=O)NC(C)C)n(C)c2c1ccc1cc(Cl)c(Cl)cc12 | 15.2 µM (inactive) | – | 11.7 µM (inactive) | 14.7 µM (inactive) | 9.23 µM (inactive) | 15.5 µM (inactive) | 10.8 µM (inactive) | 3.78 µM (inactive) | 12.8 µM (inactive) | 10.3 µM (inactive) | 12.2 µM (inactive) | 17.3 µM (inactive) | 13.4 µM (inactive) | 12 µM (inactive) | 23.8 µM (inactive) | 5.82 µM (inactive)
CCC(=N\NC(N)=S)/C(C)=N/O | – | > 100 µM (inactive) | > 100 µM (inactive) | > 100 µM (inactive) | > 100 µM (inactive) | > 100 µM (inactive) | > 100 µM (inactive) | > 100 µM (inactive) | > 100 µM (inactive) | > 100 µM (inactive) | > 100 µM (inactive) | > 100 µM (inactive) | – | > 100 µM (inactive) | > 100 µM (inactive) | > 100 µM (inactive)
Cc1ccc(S(=O)(=O)[C@@H](Cl)[C@H]2N=C(Cl)NN=C2c2ccccc2)cc1 | 23.9 µM (inactive) | 23.2 µM (inactive) | 25.1 µM (inactive) | 20 µM (inactive) | 19.1 µM (inactive) | 21.2 µM (inactive) | 20.7 µM (inactive) | 26.8 µM (inactive) | 20.6 µM (inactive) | 27.6 µM (inactive) | 18.6 µM (inactive) | 14.8 µM (inactive) | 27.9 µM (inactive) | 15.1 µM (inactive) | – | 28.8 µM (inactive)
CC1=CC2=C(C#N)C(=O)OC2(C)C(c2ccccc2)C1 (centres undefined) | > 100 µM (inactive) | > 100 µM (inactive) | > 100 µM (inactive) | > 100 µM (inactive) | > 100 µM (inactive) | > 100 µM (inactive) | > 100 µM (inactive) | > 100 µM (inactive) | – | 77.8 µM (inactive) | – | > 100 µM (inactive) | 16.2 µM (inactive) | > 100 µM (inactive) | > 100 µM (inactive) | –
COc1c2c(cc3c1C(=O)c1c(O)cccc1C3=O)CC(O)CC2 (centres undefined) | 19.5 µM (inactive) | 57.7 µM (inactive) | 24.6 µM (inactive) | 19.3 µM (inactive) | > 100 µM (inactive) | 32 µM (inactive) | 49.8 µM (inactive) | 54.5 µM (inactive) | 20.1 µM (inactive) | – | – | > 100 µM (inactive) | 34.8 µM (inactive) | 28.5 µM (inactive) | 26.7 µM (inactive) | 7.18 µM (inactive)
CN(C)C(=O)C(F)(F)C(c1ccc(F)cc1)C1C(=O)N(C)C(=O)N(C)C1=O (centres undefined) | > 100 µM (inactive) | > 100 µM (inactive) | > 100 µM (inactive) | > 100 µM (inactive) | > 100 µM (inactive) | > 100 µM (inactive) | – | > 100 µM (inactive) | > 100 µM (inactive) | > 100 µM (inactive) | > 100 µM (inactive) | > 100 µM (inactive) | > 100 µM (inactive) | > 100 µM (inactive) | – | > 100 µM (inactive)
CCn1c2ccccc2c2cc(Nc3cc(C)[nH]c(=O)n3)ccc21 | – | > 100 µM (inactive) | > 100 µM (inactive) | > 100 µM (inactive) | – | > 100 µM (inactive) | – | – | > 100 µM (inactive) | – | > 100 µM (inactive) | > 100 µM (inactive) | – | 0.349 µM (active) | – | > 100 µM (inactive)
S=C(S)NCNC(=S)S | – | > 100 µM (inactive) | > 100 µM (inactive) | > 100 µM (inactive) | > 100 µM (inactive) | > 100 µM (inactive) | > 100 µM (inactive) | – | > 100 µM (inactive) | > 100 µM (inactive) | > 100 µM (inactive) | – | > 100 µM (inactive) | > 100 µM (inactive) | > 100 µM (inactive) | > 100 µM (inactive)
c1ccc([P+](Cc2ccc(C[P+](c3ccccc3)(c3ccccc3)c3ccccc3)cc2)(c2ccccc2)c2ccccc2)cc1 | – | 86.3 µM (inactive) | 12.4 µM (inactive) | 69.5 µM (inactive) | 14.6 µM (inactive) | 58.2 µM (inactive) | 52.7 µM (inactive) | > 100 µM (inactive) | 32.7 µM (inactive) | 43 µM (inactive) | 61.4 µM (inactive) | – | 29.6 µM (inactive) | 44.2 µM (inactive) | 32.4 µM (inactive) | > 100 µM (inactive)
C[C@@H]1CC[C@]2(C(=O)O)CC[C@]3(C)C(=CC[C@@H]4[C@@]5(C)CC[C@H](O)C(C)(C)[C@@H]5CC[C@]43C)[C@@H]2[C@]1(C)O [POMOLIC ACID] | 14.4 µM (inactive) | 8.97 µM (inactive) | 12.2 µM (inactive) | – | 15.7 µM (inactive) | 2.98 µM (inactive) | 12.3 µM (inactive) | – | 18.7 µM (inactive) | 16.3 µM (inactive) | – | 17.1 µM (inactive) | 13.5 µM (inactive) | 3.49 µM (inactive) | 3.52 µM (inactive) | 16.4 µM (inactive)
